Reference: patent US9365604B2, “Oligomer-nucleoside phosphate conjugates” (NEKTAR THERAPEUTICS, priority 2007, dated 2016)
Read-outs that look alike come from different tables or passages of the source.

Columns and labels:
[1] = on a mM basis
Description: Cells were inoculated into 24-well microtiter plates in 100 μL at 5×10^3 cells/well, in duplicate. After 24 h, test articles were added to the cells for 24 or 48 h, after which time the supernatant from each of the wells was collected and stored below −15° C. until LC/MS analysis.

DU145 = experiment: Sulforhodamine B (SRB) growth inhibition assay; format: cell-based, Human; settings: SRB assay
Description: (§1) The aim was to determine the GI50 values for PEG-floxuridine conjugates against a panel of cell lines, and based on previous data from Xenograft studies. […] The test articles were solubilized in dimethylsulfoxide and were tested at four different molar (M) concentrations; 10^−4, 10^−5, 10^−6, M. GI50 (the concentration needed to reduce the growth of treated cells to half that of untreated control cells) was calculated for each condition ([(Ti−Tz)/(C-Tz)]×100=50, where Ti, Tz, and C refer to absorbance values obtained from each tested concentration, time zero, and control treatment, respectively).
as §1, with “The objective” for “The aim”, “the IC50” for “the GI50”, “for PEG-gemcitabine” for “for PEG-floxuridine”, “in dimethyl sulfoxide” for “in dimethylsulfoxide”, “10^−6, 10^−7” for “10^−6,”, “condition ([(Ti−Tz)/(C−Tz)]×100=50,” for “condition ([(Ti−Tz)/(C-Tz)]×100=50,”

CAKI-1 = experiment: In vitro cytotoxicity assay (CellTiter-Glo); format: cell-based
NCI/ADR-RES = experiment: Sulforhodamine B (SRB) growth inhibition assay; format: cell-based, Human; settings: cells exposed for 24 h, read-out: GI50 values (μM) NCI/ADR-RES
Description: (§2) In Vitro Screening of PEG-Gemcitabine Monophosphate in Selected Human Cancer Cell Lines
(§3) The aim was to determine the GI50 values for PEG-floxuridine conjugates against a panel of cell lines, and based on previous data from Xenograft studies. The cells were exposed for 24 h, and cell viability assessed by using the Sulphorhodamine (SRB) assay. The test articles were solubilized in dimethylsulfoxide and were tested at four different molar (M) concentrations; 10^−4, 10^−5, 10^−6, M. GI50 (the concentration needed to reduce the growth of treated cells to half that of untreated control cells) was calculated for each condition ([(Ti−Tz)/(C-Tz)]×100=50, where Ti, Tz, and C refer to absorbance values obtained from each tested concentration, time zero, and control treatment, respectively).
as §3, with “The objective” for “The aim”, “the IC50” for “the GI50”, “for PEG-gemcitabine” for “for PEG-floxuridine”, “in dimethyl sulfoxide” for “in dimethylsulfoxide”, “10^−6, 10^−7” for “10^−6,”, “condition ([(Ti−Tz)/(C−Tz)]×100=50,” for “condition ([(Ti−Tz)/(C-Tz)]×100=50,”

NCI-H460 = experiment: In vitro cytotoxicity assay (CellTiter-Glo); format: cell-based
Description: (§4) The objective of these studies was to determine the IC50 values for PEG-gemcitabine conjugates against gemcitabine-resistant cell lines based on data from previous Xenograft studies. The cells were exposed for 72 h, and cell viability assessed by using the CellTiter-Glo assay.

DLD-1 = experiment: In vitro cytotoxicity assay (CellTiter-Glo); format: cell-based
Description: as §4

CCRF-CEM = experiment: In vitro cytotoxicity assay (CellTiter-Glo); format: cell-based
Description: as §4

AS283 = experiment: In vitro cytotoxicity assay (CellTiter-Glo); format: cell-based
Description: as §4

HL-60 = experiment: In vitro cytotoxicity assay (CellTiter-Glo); format: cell-based
Description: as §4

K-562 = experiment: In vitro cytotoxicity assay (CellTiter-Glo); format: cell-based
Description: as §4

SW-620 = experiment: In vitro cytotoxicity assay (CellTiter-Glo); format: cell-based
Description: as §4

RL = experiment: In vitro cytotoxicity assay (CellTiter-Glo); format: cell-based
Description: as §4

NCI-H522 = experiment: In vitro cytotoxicity assay (CellTiter-Glo); format: cell-based
Description: as §4

NCI-H23 = experiment: In vitro cytotoxicity assay (CellTiter-Glo); format: cell-based
Description: as §4

HT29 = experiment: Sulforhodamine B (SRB) growth inhibition assay; format: cell-based, Human; settings: for GI50: SRB assay
Description: as §2, §1
as §1, with “The objective” for “The aim”, “the IC50” for “the GI50”, “for PEG-gemcitabine” for “for PEG-floxuridine”, “in dimethyl sulfoxide” for “in dimethylsulfoxide”, “10^−6, 10^−7” for “10^−6,”, “condition ([(Ti−Tz)/(C−Tz)]×100=50,” for “condition ([(Ti−Tz)/(C-Tz)]×100=50,”

MCF7 = experiment: Sulforhodamine B (SRB) growth inhibition assay; format: cell-based, Human; settings: for GI50: SRB assay
Description: as §2, §1
as §1, with “The objective” for “The aim”, “the IC50” for “the GI50”, “for PEG-gemcitabine” for “for PEG-floxuridine”, “in dimethyl sulfoxide” for “in dimethylsulfoxide”, “10^−6, 10^−7” for “10^−6,”, “condition ([(Ti−Tz)/(C−Tz)]×100=50,” for “condition ([(Ti−Tz)/(C-Tz)]×100=50,”

A2780 = experiment: Sulforhodamine B (SRB) growth inhibition assay; format: cell-based, Human; settings: for GI50: SRB assay
Description: as §2, §1
as §1, with “The objective” for “The aim”, “the IC50” for “the GI50”, “for PEG-gemcitabine” for “for PEG-floxuridine”, “in dimethyl sulfoxide” for “in dimethylsulfoxide”, “10^−6, 10^−7” for “10^−6,”, “condition ([(Ti−Tz)/(C−Tz)]×100=50,” for “condition ([(Ti−Tz)/(C-Tz)]×100=50,”

COLO205 = experiment: Sulforhodamine B (SRB) growth inhibition assay; format: cell-based, Human; settings: for GI50: COLO205, SRB assay
Description: as §2, §1
as §1, with “The objective” for “The aim”, “the IC50” for “the GI50”, “for PEG-gemcitabine” for “for PEG-floxuridine”, “in dimethyl sulfoxide” for “in dimethylsulfoxide”, “10^−6, 10^−7” for “10^−6,”, “condition ([(Ti−Tz)/(C−Tz)]×100=50,” for “condition ([(Ti−Tz)/(C-Tz)]×100=50,”

HCT15 = experiment: Sulforhodamine B (SRB) growth inhibition assay; format: cell-based, Human; settings: for GI50: SRB assay
Description: as §2, §1
as §1, with “The objective” for “The aim”, “the IC50” for “the GI50”, “for PEG-gemcitabine” for “for PEG-floxuridine”, “in dimethyl sulfoxide” for “in dimethylsulfoxide”, “10^−6, 10^−7” for “10^−6,”, “condition ([(Ti−Tz)/(C−Tz)]×100=50,” for “condition ([(Ti−Tz)/(C-Tz)]×100=50,”

Hop62 = experiment: Sulforhodamine B (SRB) growth inhibition assay; format: cell-based, Human; settings: for GI50: SRB assay
Description: as §2, §1
as §1, with “The objective” for “The aim”, “the IC50” for “the GI50”, “for PEG-gemcitabine” for “for PEG-floxuridine”, “in dimethyl sulfoxide” for “in dimethylsulfoxide”, “10^−6, 10^−7” for “10^−6,”, “condition ([(Ti−Tz)/(C−Tz)]×100=50,” for “condition ([(Ti−Tz)/(C-Tz)]×100=50,”

MIA PaCa-2 = experiment: In vitro cytotoxicity assay (CellTiter-Glo); format: cell-based
Description: (§5) The objective of these studies were to determine the IC50 values for PEG-floxuridine conjugates against floxuridine-resistant cell lines based on data from previous Xenograft studies. The cells were exposed for 72 h, and cell viability assessed by using the CellTiter-Glo assay.
as §4

HT-29 = experiment: In vitro cytotoxicity assay (CellTiter-Glo); format: cell-based
Description: as §5, §4

HCT-116 = experiment: In vitro cytotoxicity assay (CellTiter-Glo); format: cell-based
Description: as §5, §4

[2] = GI50 of conjugate vs gemcitabine

In the case of `COCCOCCOCCOP(=O)(O)OC[C@H]1O[C@@H](n2ccc(N)nc2=O)C(F)(F)[C@@H]1O.Cl` [Gemcitabine Mono (mPEG3), 5′-gemcitabine methoxy tri(ethylene glycol) phosphate hydrochloride], the “remains after 24 and 48 h” value [1] is reported as “approximately 80%”, the GI50 (DU145; 48 h drug exposure, read-out: GI50 (molar concentration) in Cell Line DU145) is reported as less than 0.1 µM and the GI50 (DU145; cells exposed for 24 h, read-out: GI50 values (μM) DU145) is reported as less than 0.1 µM. For the same compound, the “Ratio vs gem (IC50) CAKI-1” value (CAKI-1) was 3, the IC50 (CAKI-1; 72 h exposure, CellTiter-Glo) was 21 nM and the GI50 (NCI/ADR-RES) was 1.7 µM. For the same compound, the “Ratio vs gem (IC50) NCI-H460” value (NCI-H460) was 3, the IC50 (NCI-H460; 72 h exposure, CellTiter-Glo) was 43 nM and the “Ratio vs gem (IC50) DLD-1” value (DLD-1) was 4. For the same compound, the IC50 (DLD-1; 72 h exposure, CellTiter-Glo) was 93 nM, the “Ratio vs gem (IC50) CCRF-CEM” value (CCRF-CEM) was 1 and the IC50 (CCRF-CEM; 72 h exposure, CellTiter-Glo) was 6.5 nM. The “Ratio vs gem (IC50) AS283” value (AS283) was 3, the IC50 (AS283; 72 h exposure, CellTiter-Glo) was 408 nM and the “Ratio vs gem (IC50) HL-60” value (HL-60) was 1. The IC50 (HL-60; 72 h exposure, CellTiter-Glo) was 2 nM, the “Ratio vs gem (IC50) K-562” value (K-562) was 1 and the IC50 (K-562; 72 h exposure, CellTiter-Glo) was 914 nM. For the same compound, the “Ratio vs gem (IC50) SW-620” value (SW-620) was 2, the IC50 (SW-620; 72 h exposure, CellTiter-Glo) was 95 nM and the “Ratio vs gem (IC50) RL” value (RL) was 2. The IC50 (RL; 72 h exposure, CellTiter-Glo) was 568 nM, the “Ratio vs gem (IC50) NCI-H522” value (NCI-H522) was 8 and the IC50 (NCI-H522; 72 h exposure, CellTiter-Glo) was 36 nM. For the same compound, the “Ratio vs gem (IC50) NCI-H23” value (NCI-H23) was 3, the IC50 (NCI-H23; 72 h exposure, CellTiter-Glo) was 18 nM and the “ratio vs gem (GI50) HT29” value (HT29; [2]) was 13. For the same compound, the GI50 (HT29; 48 h drug exposure, read-out: GI50 (molar concentration) in Cell Line HT29) was 28 µM, the GI50 (HT29; cells exposed for 24 h, read-out: GI50 values (μM) HT29) was 28 µM and the “ratio vs gem (GI50) MCF7” value (MCF7; [2]) was 2. For the same compound, the GI50 (MCF7; 48 h drug exposure, read-out: GI50 (molar concentration) in Cell Line MCF7) was 0.16 µM, the GI50 (MCF7; cells exposed for 24 h, read-out: GI50 values (μM) MCF7) was 0.158 µM and the “ratio vs gem (GI50) A2780” value (A2780; [2]) was 2. For the same compound, the GI50 (A2780; 48 h drug exposure, read-out: GI50 (molar concentration) in Cell Line A2780) was 0.15 µM, the GI50 (A2780; cells exposed for 24 h, read-out: GI50 values (μM) A2780) was 0.15 µM and the GI50 (COLO205; 48 h drug exposure, read-out: GI50 (molar concentration) in Cell Line COLO205) was 0.16 µM. For the same compound, the GI50 (COLO205; cells exposed for 24 h, read-out: GI50 values (μM) COLO205) was 0.16 µM, the “ratio vs gem (GI50) COLO-205” value (COLO205; COLO-205, GI50 of conjugate vs gemcitabine) was 1 and the “ratio vs gem (GI50) HCT15” value (HCT15; [2]) was 14. The GI50 (HCT15; 48 h drug exposure, read-out: GI50 (molar concentration) in Cell Line HCT15) was 2.2 µM, the GI50 (HCT15; cells exposed for 24 h, read-out: GI50 values (μM) HCT15) was 2.2 µM and the “ratio vs gem (GI50) Hop62” value (Hop62; [2]) was 1. For the same compound, the GI50 (Hop62; 48 h drug exposure, read-out: GI50 (molar concentration) in Cell Line Hop62) was 2.6 µM, the GI50 (Hop62; cells exposed for 24 h, read-out: GI50 values (μM) Hop62) was 2.6 µM and the “Ratio vs gem (IC50) MIA PaCa-2” value (MIA PaCa-2) was 3. For the same compound, the IC50 (MIA PaCa-2; 72 h exposure, CellTiter-Glo) was 76 nM, the “Ratio vs gem (IC50) HT-29” value (HT-29) was 7 and the IC50 (HT-29; 72 h exposure, CellTiter-Glo) was 755 nM. The “Ratio vs gem (IC50) HCT-116” value (HCT-116) was 2 and the IC50 (HCT-116; 72 h exposure, CellTiter-Glo) was 2.9 nM.
